Measured values as given in patent publication US11229664B2, “Treatment of myelosuppression” (priority 2012, dated 2022).
Values joined by “and” are separate entries in the source; they are usually repeats but may differ in a detail not shown here. Equal values may be shown once.

System: platelets
Assay: Clinical trial, metastatic pancreatic cancer: platelet count / thrombocytopenia grade
Format: in vivo, human
Parameters: Platelet count at start of cycle, Cycle 1: unit not given here; Platelet count at start of cycle, Cycle 4 / Platelet count: unit: ×10^3/μl blood
Description: Male and non-pregnant, non-lactating, female patients, aged 18 to 75, with histologically confirmed metastatic adenocarcinoma of the pancreas were enrolled in the trial. […] Treatment consisted of a series of 28-day cycles, wherein the last day of one cycle (e.g., day 28, cycle 1) was immediately followed by the first day of the next cycle (e.g., day 1, cycle 2). […] Nab-paclitaxel and gemcitabine therapy was given as described in the prescribing information for Abraxane® and Gemzar®. See also, Von Hoff et al., 2011, J. […] As a substantially non-anticoagulant heparinoid, ODSH can be administered at a dose that is greater than the fully anticoagulant dose of unfractionated heparin, without concern for anticoagulant effect, as shown in the Results below. An initial run-in period was conducted in which ten patients were treated with the gemcitabine, nab-paclitaxel, and ODSH regimen described above. After all ten patients had completed at least one 28-day cycle, the data were reviewed and an open-label randomized study initiated, with two arms (ODSH arm and Control arm). In the ODSH arm, the dosing regimen was the same as in the run-in period (gemcitabine, nab-paclitaxel, and ODSH). In the Control arm, patients were given the same gemcitabine and nab-paclitaxel regimen as in the run-in period, but without ODSH. […] Platelet counts, total white blood cell counts, and absolute neutrophil counts were performed. Grading of thrombocytopenia and/or neutropenia was performed according to the following standards: [table]

[1] = ODSH adjunctive to gemcitabine and nab-paclitaxel, blood drawn before treatment that day, individual patients
[2] = all samples (FIG. 10A), ODSH adjunct to gemcitabine/nab-paclitaxel
[3] = day 15, first cycle, ODSH adjunct to gemcitabine/nab-paclitaxel

substantially 2-O, 3-O desulfated heparin [ODSH]
Platelet Count, Cycle 1 Day 8 [1]: 205 ×10^3/μl blood and 167 ×10^3/μl blood and 108 ×10^3/μl blood and 150 ×10^3/μl blood and 239 ×10^3/μl blood and 86 ×10^3/μl blood (2×) and 230 ×10^3/μl blood and 206 ×10^3/μl blood and 214 ×10^3/μl blood
Platelet Count, Cycle 1 Day 15 [1]: 135 ×10^3/μl blood and 178 ×10^3/μl blood and 108 ×10^3/μl blood and 75 ×10^3/μl blood and 220 ×10^3/μl blood and 76 ×10^3/μl blood and 181 ×10^3/μl blood and 134 ×10^3/μl blood and 260 ×10^3/μl blood and 63 ×10^3/μl blood
Platelet Count, Cycle 2 Day 1 [1]: 419 ×10^3/μl blood and 322 ×10^3/μl blood and 312 ×10^3/μl blood and 574 ×10^3/μl blood and 445 ×10^3/μl blood and 175 ×10^3/μl blood and 417 ×10^3/μl blood and 614 ×10^3/μl blood and 532 ×10^3/μl blood and 274 ×10^3/μl blood
Platelet Count, Cycle 2 Day 8 [1]: 434 ×10^3/μl blood and 336 ×10^3/μl blood and 241 ×10^3/μl blood and 424 ×10^3/μl blood and 05 ×10^3/μl blood and 83 ×10^3/μl blood and 402 ×10^3/μl blood and 375 ×10^3/μl blood and 257 ×10^3/μl blood and 95 ×10^3/μl blood
Platelet Count, Cycle 2 Day 15 [1]: 209 ×10^3/μl blood and 207 ×10^3/μl blood and 132 ×10^3/μl blood and 167 ×10^3/μl blood and 186 ×10^3/μl blood (2×) and 70 ×10^3/μl blood and 178 ×10^3/μl blood and 170 ×10^3/μl blood and 54 ×10^3/μl blood
Platelet Count, Cycle 3 Day 1 [1]: 510 ×10^3/μl blood and 327 ×10^3/μl blood and 362 ×10^3/μl blood and 655 ×10^3/μl blood and 418 ×10^3/μl blood and 123 ×10^3/μl blood and 487 ×10^3/μl blood and 628 ×10^3/μl blood and 387 ×10^3/μl blood and −361 ×10^3/μl blood
Platelet Count, Cycle 3 Day 8 [1]: 435 ×10^3/μl blood and 325 ×10^3/μl blood and 362 ×10^3/μl blood (2×) and 388 ×10^3/μl blood and 223 ×10^3/μl blood and 119 ×10^3/μl blood and 355 ×10^3/μl blood and 371 ×10^3/μl blood and 179 ×10^3/μl blood
Platelet Count, Cycle 3 Day 15 [1]: 207 ×10^3/μl blood and 170 ×10^3/μl blood and 163 ×10^3/μl blood and 188 ×10^3/μl blood and 171 ×10^3/μl blood (2×) and 63 ×10^3/μl blood and 172 ×10^3/μl blood and 189 ×10^3/μl blood and 71 ×10^3/μl blood
Platelet Count, Cycle 4 Day 1 [1]: 586 ×10^3/μl blood and 402 ×10^3/μl blood and 292 ×10^3/μl blood and 478 ×10^3/μl blood and 667 ×10^3/μl blood and 184 ×10^3/μl blood and 406 ×10^3/μl blood and 626 ×10^3/μl blood and 382 ×10^3/μl blood and 387 ×10^3/μl blood
Platelet Count, Cycle 4 Day 8 [1]: 464 ×10^3/μl blood and 339 ×10^3/μl blood and 355 ×10^3/μl blood and 468 ×10^3/μl blood and 193 ×10^3/μl blood and 188 ×10^3/μl blood and 507 ×10^3/μl blood and 448 ×10^3/μl blood and 185 ×10^3/μl blood
Platelet Count, Cycle 4 Day 15 [1]: 203 ×10^3/μl blood and 170 ×10^3/μl blood and 140 ×10^3/μl blood and 163 ×10^3/μl blood and 149 ×10^3/μl blood and 129 ×10^3/μl blood and 339 ×10^3/μl blood and 169 ×10^3/μl blood and 202 ×10^3/μl blood and 78 ×10^3/μl blood
Platelet Count, Cycle 5 Day 1 [1]: 499 ×10^3/μl blood and 351 ×10^3/μl blood and 266 ×10^3/μl blood and 389 ×10^3/μl blood and 275 ×10^3/μl blood and 106 ×10^3/μl blood and 512 ×10^3/μl blood and 607 ×10^3/μl blood and 427 ×10^3/μl blood and −288 ×10^3/μl blood
Platelet Count, Cycle 5 Day 8 [1]: 231 ×10^3/μl blood and 288 ×10^3/μl blood and 241 ×10^3/μl blood and 325 ×10^3/μl blood and 192 ×10^3/μl blood and 94 ×10^3/μl blood and 378 ×10^3/μl blood and 377 ×10^3/μl blood and 403 ×10^3/μl blood and 188 ×10^3/μl blood
Platelet Count, Cycle 5 Day 15 [1]: 132 ×10^3/μl blood and 169 ×10^3/μl blood and 153 ×10^3/μl blood and 109 ×10^3/μl blood and 58 ×10^3/μl blood and 193 ×10^3/μl blood and 194 ×10^3/μl blood and 72 ×10^3/μl blood
Platelet Count, Cycle 6 Day 1 [1]: 288 ×10^3/μl blood and 370 ×10^3/μl blood and 294 ×10^3/μl blood and 489 ×10^3/μl blood and 114 ×10^3/μl blood and 371 ×10^3/μl blood and 503 ×10^3/μl blood and 275 ×10^3/μl blood
Platelet Count, Cycle 6 Day 8 [1]: 384 ×10^3/μl blood and 321 ×10^3/μl blood and 207 ×10^3/μl blood and 336 ×10^3/μl blood and 85 ×10^3/μl blood and 313 ×10^3/μl blood and 493 ×10^3/μl blood and 148 ×10^3/μl blood
Platelet Count, Cycle 6 Day 15 [1]: 169 ×10^3/μl blood and 162 ×10^3/μl blood and 128 ×10^3/μl blood and 102 ×10^3/μl blood and 54 ×10^3/μl blood and 338 ×10^3/μl blood and 164 ×10^3/μl blood and 72 ×10^3/μl blood
Mean and median platelet counts at day 15 of treatment cycles 2 and 3 [2]: remained in the normal range
Mean and median platelet counts on the first day of treatment cycles 2 and 3 [2]: above 150,000
Platelet count at start of cycle, Cycle 1 (day 1 of cycle 1, before any chemotherapy, ODSH adjunctive to gemcitabine and nab-paclitaxel, individual patients): 264 and 191 and 274 and 276 and 120 and 271 and 342 and 429 and 180 and 313
Platelet count at start of cycle, Cycle 2 (day 1 of cycle 2, ODSH adjunctive to gemcitabine and nab-paclitaxel, individual patients): 322 and 312 and 574 and 445 and 175 and 417 and 614 and 537 and 274 and 419
Platelet count at start of cycle, Cycle 3 (day 1 of cycle 3, ODSH adjunctive to gemcitabine and nab-paclitaxel, individual patients): 327 and 362 and 655 and 418 and 123 and 628 and 387 and 361 and 510
Platelet count at start of cycle, Cycle 4 (day 1 of cycle 4, ODSH adjunctive to gemcitabine and nab-paclitaxel, individual patients): 402 and 292 and 478 and 667 and 184 and 406 and 626 and 382 and 387 and 586
Platelet count at start of cycle, Cycle 5 (day 1 of cycle 5, ODSH adjunctive to gemcitabine and nab-paclitaxel, individual patients): 351 and 389 and 275 and 512 and 427 and 288 and 499
Platelet count at start of cycle, Cycle 6 (day 1 of cycle 6, ODSH adjunctive to gemcitabine and nab-paclitaxel, individual patients): 489 and 371 and 503 and 275 and 288
Platelet count at start of cycle, Cycle 7 (day 1 of cycle 7, ODSH adjunctive to gemcitabine and nab-paclitaxel, individual patients): 454
Patients with no more than mild thrombocytopenia after two doses of treatment [3]: 90%
Patients with no thrombocytopenia after two doses of treatment [3]: 40%
Patients with no thrombocytopenia after five doses of treatment (day 15 of cycle 2, ODSH adjunct to gemcitabine/nab-paclitaxel): 7 out of 10
Patients thrombocytopenic at the beginning of cycles 2 and 3 (mild (Grade 1), after three or six doses of gemcitabine and nab-paclitaxel with ODSH): one
Platelet count (open-label randomized trial, per arm, Cycle 1 Day 1): 248
Platelet count (open-label randomized trial, per arm, Cycle 1 Day 15): 143
Platelet count (open-label randomized trial, per arm, Cycle 2 Day 1): 336
Platelet count (open-label randomized trial, per arm, Cycle 2 Day 15): 135
Platelet count (open-label randomized trial, per arm, Cycle 3 Day 1): 393
Platelet count (open-label randomized trial, per arm, Cycle 3 Day 15): 171
Platelet count (open-label randomized trial, per arm, Cycle 4 Day 1): 404
Platelet count (open-label randomized trial, per arm, Cycle 4 Day 15): 156
Platelet count (open-label randomized trial, per arm, Cycle 5 Day 1): 389
Platelet count (open-label randomized trial, per arm, Cycle 5 Day 15): 121
Platelet count (open-label randomized trial, per arm, Cycle 6 Day 1): 371
Platelet count (open-label randomized trial, per arm, Cycle 6 Day 15): 132
Platelet Count, Screen (prior to entry into the clinical trial protocol, individual patients): 321 ×10^3/μl blood and 187 ×10^3/μl blood and 269 ×10^3/μl blood and 267 ×10^3/μl blood and 166 ×10^3/μl blood and 271 ×10^3/μl blood and 204 ×10^3/μl blood and 505 ×10^3/μl blood
Platelet count (randomized stage, individual patients, Cycle 1 Day 15): 231 and 216 and 121 and 103 and 199 and 172 and 162 and 232
Platelet count (randomized stage, individual patients, Cycle 2 Day 15): 110 and 156 and 95 and 74 and 92 and 165
Platelet count (randomized stage, individual patients, Cycle 3 Day 15): 124 and 74 and 76 and 96
Platelet count (randomized stage, individual patients, Cycle 4 Day 15): 31 and 138
Platelet counts, ODSH arm vs Control arm (randomized stage, gemcitabine + nab-paclitaxel with or without ODSH): statistically significant difference
Median and mean platelet counts at day 15 of the first cycle, ODSH arm vs patients not receiving ODSH (randomized trial, 5 patients in each arm, p=0.013 unpaired t-test): significantly higher
Platelet recovery by day 1 of a subsequent cycle, ODSH arm vs control arm (randomized trial, p=0.0004 after 6 cycles, unpaired t-test): enhanced
